Reference: patent US7235548B2, “Compounds and their use as positive AMPA receptor modulators” (NeuroSearch A/S, priority 1998, dated 2007)

Assays:
[1] = target: ionotropic quisqualate (AMPA) receptors; assay: In vitro inhibition of 3H-AMPA binding; details: 5 nM 3H-AMPA, rat cerebral cortex membranes, 30 min at 2° C.; read-out: IC50 (concentration of the test substance which inhibits the specific binding of 3H-AMPA by 50%)
From the text: L-glutamate (GLU) is the major excitatory neurotransmitter in the mammalian central nervous system. From electrophysiological- and binding studies, there appear to be at least three subtypes of GLU receptors, tentatively named N-methyl-D-aspartate (NMDA)-, quisqualate- and kainate receptors. GLU receptor subtypes sensitive to quisqualate and kainate as a group are often referred to as non-NMDA receptors. Receptor binding studies using the labelled agonists ^3H-AMPA (α-amino-3-hydroxy-5-methyl-4-isoxazolepropionic acid) (for quisqualate receptors) and ^3H-kainate (for kainate receptors) have shown different antagonist selectivities and regional distribution. AMPA has been known for several years to be a potent and selective agonist at the traditionally named quisqualate receptors. Activation of quisqualate receptors by AMPA is associated with Na^+ influx and K^+ efflux leading to depolarization.
The non-NMDA receptors have recently been reclassified to include the quisqualate activated metabotropic receptor type, linked to the inositol triphosphate and diacylglycerate metabolism. […] Selective activation of the metabotropic type has been claimed for trans-ACPD. Recently, the potent and competitive non-NMDA receptor antagonists CNQX and NBQX have been described, and CNQX have been reported not to block the effect of quisqualate at the metabotropic receptor subtype. ^3H-AMPA is a selective radioligand for labelling the ionotropic quisqualate (AMPA) receptors.
Preparations are performed at 0–4° C. unless otherwise indicated. Cerebral cortex from male Wistar rats (150–200 g) is homogenized for 5–10 sec in 20 ml Tris-HCl (30 mM, pH 7.4) using an Ultra-Turrax homogenizer. The suspension is centrifuged at 27,000×g for 15 min and the pellet is washed three times with buffer (centrifuged at 27,000×g for 10 min). The washed pellet is homogenized in 20 ml of buffer and incubated on a water bath (37° C.) for 30 min to remove endogenous glutamate and then centrifuged for 10 min at 27,000×g. The pellet is then homogenized in buffer and centrifuged at for 10 min at 27,000×g. The final pellet is resuspended in 30 ml buffer and the preparation is frozen and stored at −20° C.
The membrane preparation is thawed and centrifuged at 2° C. for 10 min at 27,000×g for 10 min. The pellet is washed twice with 20 ml 30 mM Tris-HCl containing 2.5 mM CaCl2, pH 7.4 using an Ultra-Turrax homogenizer and centrifuged for 10 min at 27,000×g. The final pellet is resuspended in 30 mM Tris-HCl containing 2.5 mM CaCl2 and 100 mM KSCN, pH 7.4 (100 ml per g of original tissue) and used for binding assays. Aliquots of 0.5 (0.2) ml are added to 25 (20) μl of test solution and 25(20) μl of ^3H-AMPA (5 nM, final concentration), mixed and incubated for 30 min at 2° C. Non-specific binding is determined using L-glutamate (0.6 mM, final concentration). After incubation the 550 μl samples are added 5 ml of ice-cold buffer and poured directly onto Whatman GF/C glass fibre filters under suction and immediately washed with 5 ml of ice-cold buffer. The 240 μl samples are filtered over glass fibre filter using a Skatron cell harvrester. The filters are washed with 3 ml ice-cold buffer. The amount of radioactivity on the filters is determined by conventional liquid scintillation counting. Specific binding is total binding minus non-specific binding.
The test value will be given as the IC50 (the concentration (μM) of the test substance which inhibits the specific binding of ^3H-AMPA by 50%)

[2] = test system: AMPA receptor; assay: Voltage clamp (whole cell patch clamp), current induced by AMPA in cultured mouse neocortical neurons; format: cell-based; details: for reversibility of the potentiation: after wash out of the compound; for potentiation of the current induced by application of 30 μM AMPA: holding voltage −60 mV
Description: Experiments were performed in voltage clamp using conventional whole cell patch clamp methods (Hamill et al., 1981), essentially as described previously (Mathiesen et al., 1998). The following salt solutions were used (mM): NaCl (140), KCl (4), CaCl2 (2), MgCl2 (1), Sucrose (30), Tetrodotoxin (0.0003), Bicuculline Methiodide (0.005) and HEPES (10, pH 7.4). Intracellular solution (mM): CsCl (120), CsF (20), MgCl2 (2), EGTA (10), HEPES (10, pH=7.2).
Mouse neocortical neurons were cultured essentially as described by Drejer et al. (1987). Briefly, the forebrains from embryonic (E17) NMRI mice were removed under sterile conditions. The tissue was chopped in 0.4 mm cubes and the triturated with trypsin (12.5 μg/ml) and DNAse (2.5 μg/ml), 15 min, 37° C. The cells were suspended at a concentration of 1×10^6 cells/ml in a slightly modified DMEM which contained horse serum (10% (v/v)), penicillin (333 U/ml), paraaminobenzoic acid (1 mg/ml), L-glutamine (0.5 mM), insulin (0.08 U/ml) and KCl (23.8 mM). The cell suspension was subsequently inoculated into poly-L-lysine coated 35 mm Petri dishes (2 ml/dish). Glass coverslips (3.5 mm) were placed in the dishes before coating. After 24 hr in culture, the medium was replaced by freshly made medium containing 1% N2 supplement instead of serum.
The cells were kept in culture for 7–14 days at 37° C. (5% CO2/95% O2) before experiments were carried out.
Electronics, programs and data acquisition: The amplifier used was the EPC-9 (HEKA-electronics, Lambrect, Germany) run by a Power Macintosh G3 computer via an ITC-16 interface. Experimental conditions were set with the Pulse-software accompanying the amplifier. Data were low pass filtered and sampled directly to hard-disk at a rate of 3 times the cut-off frequency.
Pipettes and electrodes: Pipettes were pulled from borosilicate glass (Modulohm, Copenhagen, Denmark) using a horizontal electrode puller (Zeitz-Instrumente, Augsburg, Germany). The pipette resistances were 1.7–2.4 MW in the salt solutions used in these experiments. The pipette electrode was a chloridized silver wire, and the reference was a silverchloride pellet electrode (In Vivo Metric, Healdsburg, USA) fixed to the experimental chamber. The electrodes were zeroed with the open pipette in the bath just prior to sealing.
Experimental procedure: Coverslips were transferred to a […] experimental chamber mounted on the stage of an inverted microscope (IMT-2, Olympus) supplied with Nomarski optics. The neurons were continuously superfused with extracellular saline at a rate of 2.5 ml/min. After giga-seal formation (1–5 GW, success-rate≈90%) the whole cell configuration was attained by suction.
The cells were held at a holding voltage of −60 mV and at the start of each experiment the current was continuously measured for at least 30 sec to ensure a stable leak current. AMPA-containing solutions were delivered to the chamber through a custom-made gravity-driven flowpipe, the tip of which was placed approximately 50 μm from the cell. Application was triggered when the tubing connected to the flow pipe was compressed by a valve controlled by the Pulse-software. AMPA (30 μM) was applied for 1 sec every 45 sec. After obtainment of responses of a repeatable amplitude the compound to be tested was included in both the chamber and in the AMPA-containing solution. The compound was present until responses of a new repeatable was obtained.
The sample interval in all experiments was 310 μsec.
All experiments were performed at room temperature (20–25° C.).

[3] = test system: AMPA receptors; assay: AMPA evoked single neuron spike activity in rat hippocampus (iontophoretic application of AMPA), in vivo; details: 10 mg kg^−1 i.v.
From the text: Evaluation of the in vivo effects of positive AMPA modulators (PAMs) on the AMPA evoked spike activity in rat hippocampus. Hippocampal single neuron spike activity is strongly influenced by excitatory input, and iontophoretic application of AMPA induces spike activity in vivo in a dose-dependent manner ([…] et al. 1998). […] PAMs potentate AMPA receptor activation in vitro, and if this mechanism also operates in vivo, the i.v. injection of an PAM should enhance AMPA evoked spike activity. Thus, the aim of this study was to test the in vivo effect of a group of in vitro active PAMs. This have been done by studying their ability to enhances AMPA evoked spike activity after i.v. administration. Experiments were performed on male Wistar rats (M & B, Denmark) weighing 280-380 g, housed in two per cage with free access to food and water. […] Additional anaesthetic was given i.v. if the rat responded to a pinch of the back foot. The trachea was cannulated and the rats were placed in a stereotaxic frame and ventilated by a rodent ventilator (Ugo Basile, Comerio-Varese, Italy). Core body temperature was maintained at 37.5° C. by a DC heating pad. The left and dorsal part of the parietal bone was removed by craniotomy and the dura was withdrawn exposing the pia mater and underlying brain, covered with 0.9% NaCl. AMPA (Sigma, USA) was dissolved at 10 mM in 0.2 M NaCl. NMDA (Sigma, USA) was dissolved at 100 mM in 100 mM NaCl. Both solutions were adjusted to pH 7.5-8.0 with NaOH. COMPOUND 61 was dissolved in 200 mM CH3SO3^- Na^+ at a contration of 10 mM for iontophoretic application ([…]) and in isotonic glucose (278 mM) for i.v. administration. Cyclothiazide, COMPOUND 63, COMPOUND 56, COMPOUND 115 and COMPOUND 114 were all dissolved at in 5% chremophore solution at a concentration of 5 mg ml^-1. Evoked neuronal spike activity was analyzed on-line by a computer, saving single spikes and time of event. Neuronal spike activity (number of action potentials s^-1) was monitored on a pulse rate histogram together with indicators for AMPA, COMPOUND 61 and vehicle application. Extracellular recordings of single hippocampal neuron spikes were made with five-barrel glass microelectrodes (5B120F-6, World Precision Instruments Inc., Sarasota, Fla., USA) with a tip diameter of 10-12 μm. The individual barrels were filled with 5 M NaCl (recording), 400 mM NaCl (current balancing), 10 mM COMPOUND 61 in 200 mM CH3SO3^- Na^+ (pH 4.7), 200 mM CH3SO3^- Na^+ (pH 4.7, Vehicle), and the last barrel was filled with the AMPA. Experiments were performed on hippocampal neurons (A=5.5-6.5 mm, L=1.5-2.0 mm, H=2.0-3.0 mm, according to Paxinos & Watson, 1986). Neuronal spike activity was evoked by iontophoretic application of AMPA for periods of 10 to 15 s with 1.5 min intervals. Single neuron spike activity was amplified 5000 times with a bandwidth of 0.3 and 3 kHz (CyberAmp 320 with a Al 402 x50 smartprobe, Axon Instruments, California, USA). On-line and off-line analyses were performed by the Spike2 program with a 1401 plus interface (Cambridge Electronic Design Limited, England). The computer program also recorded mean arterial blood pressure and monitored and controlled iontophoretic application. AMPA was ejected into hippocampus in regular cycles of 100-105 s. […] Recording of neuronal spike activity was continued for at least 45 min after intravenous injection. The PAM reactivity was tested by microiontophoretic application of COMPOUND 61 (20 nA, FIG.).

Work on `CCN(CC)S(=O)(=O)c1ccc2c(c1)S(=O)(=O)NC(C1CCCCC1)N2` (centres unmarked) [Compound 48, 3-Cyclohexyl-7-(N,N-diethylamino)sulfonyl-1,2,3,4-tetrahydro-1,2,4-benzothiadiazine-1,1-dioxide] yielded an IC50 [1] of 4.4 µM.

Molecule `O=S1(=O)NC(C2CCCCC2)Nc2ccc(S(=O)(=O)N3CCCC3)cc21` (centres unmarked) [Compound 49, 3-Cyclohexyl-7-pyrrolidinosulfonyl-1,2,3,4-tetrahydro-1,2,4-benzothiadiazine-1,1-dioxide] has an IC50 [1] of 17 µM.

In the case of `O=S1(=O)NC(C2CCCCC2)Nc2ccc(S(=O)(=O)N3CCCCC3)cc21` (centres unmarked) [Compound 56, 3-Cyclohexyl-7-piperidinosulfonyl-1,2,3,4-tetrahydro-1,2,4-benzothiadiazine-1,1-dioxide], the “reversibility of the potentiation” value [2] is reported as “reversible”, the “persistence of the effect after wash out” value ([2]; compound 3 μM) is reported as “persits for several minutes after wash out” and the “potentiation of the current induced by application of 30 μM AMPA” value ([2]; compound 3 μM) is reported as “potentiated”. For the same molecule, the “onset of the enhancement after i.v. administration” value [3] was “approximately 10 min” and the “AMPA evoked spike activity” value ([3]; rat hippocampus) was “enhancement”.

For `O=S1(=O)NC(C2CC3C=CC2C3)Nc2ccc(S(=O)(=O)N3CCCCC3)cc21` (centres unmarked) [Compound 57, 3-Bicyclo[2.2.1]hept-5′-en-2′-yl-7-piperidinosulfonyl-1,2,3,4-tetrahydro-1,2,4-benzothiadiazine-1,1-dioxide], the IC50 [1] was 26 µM.

`O=S1(=O)NC(C2CCCCC2)Nc2ccc(S(=O)(=O)N3CC=CCC3)cc21` (centres unmarked) [Compound 58, 3-Cyclohexyl-7-(1′,2′,3′,6′-tetrahydropiperidino)sulfonyl-1,2,3,4-tetrahydro-1,2,4-benzothiadiazine-1,1-dioxide] gave an IC50 [1] of 3.4 µM.

Molecule `CS(=O)(=O)N1CCN(S(=O)(=O)c2ccc3c(c2)S(=O)(=O)NC(C2CCCCC2)N3)CC1` (centres unmarked) [Compound 62, 3-Cyclohexyl-7-(4′-methylsulfonylpiperazino)sulfonyl-1,2,3,4-tetrahydro-1,2,4-benzothiadiazine-1,1-dioxide] has an IC50 [1] of 6 µM.

For `Cc1cc2c(cc1-c1ccccn1)S(=O)(=O)NC(C1CCCCC1)N2` (centres unmarked) [Compound 111, 3-Cyclohexyl-6-methyl-7-(2′-pyridyl)-1,2,3,4-tetrahydro-1,2,4-benzothiadiazine-1,1-dioxide], the “reversibility of the potentiation” value [2] was “reversible” and the “potentiation of the current induced by application of 30 μM AMPA” value ([2]; compound 10 μM) was “potentiated”.

Work on `Cc1cc2c(cc1S(N)(=O)=O)S(=O)(=O)NC(C1CCCCC1)N2` (centres unmarked) [Compound 113, 3-Cyclohexyl-6-methyl-7-sulfamoyl-1,2,3,4-tetrahydro-1,2,4-benzothiadiazine-1,1-dioxide] yielded a melting point of 231 to 233 °C and an IC50 [1] of 13 µM.
